Article PMC10517971, “An inverse agonist of orphan receptor GPR61 acts by a G protein-competitive allosteric mechanism” (Nature Communications, 2023)

Key:
Human PDE10A1 = Human PDE10A1 (Homo sapiens, UniProt Q9Y233); experiment: Phosphodiesterase Assay (SPA); type: biochemical
hERG = hERG (Homo sapiens, UniProt Q12809); experiment: hERG Binding Assay (fluorescence polarization, Cy3B N-desmethyl dofetilide); design: expressed in transfected cells; membrane homogenate used
Description: 67 black 384 well flat -bottomed polystyrene plates. Compound/vehicle or standard (5 µL) were added
68 to wells followed by His -tagged BRD4 (10 µL; 40 nM final concentration in assay). Following a
69 15 min incubation at room temperature a propri etary Cy5 -labelled probe molecule (5 µL; 2 nM
70 final concentration in assay) was added. Following, an additional 16 h incubation at room
71 temperature fluorescence polarization measurements were made using an Envision plate reader
72 (Perkin Elmer, Waltham, MA, USA) and mP values were used for analysis .
73 Acetylcholinesterase As say
74 The assay described is based on Ellmans method, in which thiocholine produced by the action of
75 acetylcholinesterase forms a yellow color with 5,5'- dithiobis(2- nitrobenzoic acid). The intensity
76 of the product color, measured at 405 nm, is proportionate to the enzyme activity in the sample.
77 To each well of a clear 96 polystyrene plate 90 µL enzyme solution (1mU/well) or phosphate
78 buffered saline (PBS) and 10 µL compound/standard or vehicle was added. The plate was […]
81 read at the 20 min time point. […]
100 at room temperature for 16 h. Fluorescence polarization measurements were made using an
101 Envision plate reader (Perkin Elmer, Waltham, M A, USA) and mP values were us ed for analysis.
102 Binding Ki values were determined using the Cheng- Prusoff equation (Ki = IC50/(1+L/Kd)), where […]

Human PDE1B1 = Human PDE1B1 (Homo sapiens, UniProt Q01064); experiment: Phosphodiesterase Assay (SPA); type: biochemical
Human PDE1B1, sequence (Q01064 whole entry): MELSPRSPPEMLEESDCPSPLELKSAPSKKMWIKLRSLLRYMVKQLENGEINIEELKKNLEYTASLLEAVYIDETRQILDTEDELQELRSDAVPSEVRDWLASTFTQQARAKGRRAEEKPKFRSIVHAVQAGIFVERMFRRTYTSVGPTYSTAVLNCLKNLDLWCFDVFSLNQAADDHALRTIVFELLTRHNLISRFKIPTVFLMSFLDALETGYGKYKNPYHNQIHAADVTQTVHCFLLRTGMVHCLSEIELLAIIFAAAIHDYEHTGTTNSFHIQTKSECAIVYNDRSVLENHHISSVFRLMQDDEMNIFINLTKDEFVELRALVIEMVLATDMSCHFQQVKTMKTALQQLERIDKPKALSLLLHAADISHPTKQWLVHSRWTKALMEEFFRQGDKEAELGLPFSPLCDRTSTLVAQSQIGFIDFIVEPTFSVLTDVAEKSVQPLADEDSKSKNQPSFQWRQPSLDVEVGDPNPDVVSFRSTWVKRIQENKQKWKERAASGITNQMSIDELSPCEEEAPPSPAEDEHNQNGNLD

hERG, sequence (Q12809 whole entry): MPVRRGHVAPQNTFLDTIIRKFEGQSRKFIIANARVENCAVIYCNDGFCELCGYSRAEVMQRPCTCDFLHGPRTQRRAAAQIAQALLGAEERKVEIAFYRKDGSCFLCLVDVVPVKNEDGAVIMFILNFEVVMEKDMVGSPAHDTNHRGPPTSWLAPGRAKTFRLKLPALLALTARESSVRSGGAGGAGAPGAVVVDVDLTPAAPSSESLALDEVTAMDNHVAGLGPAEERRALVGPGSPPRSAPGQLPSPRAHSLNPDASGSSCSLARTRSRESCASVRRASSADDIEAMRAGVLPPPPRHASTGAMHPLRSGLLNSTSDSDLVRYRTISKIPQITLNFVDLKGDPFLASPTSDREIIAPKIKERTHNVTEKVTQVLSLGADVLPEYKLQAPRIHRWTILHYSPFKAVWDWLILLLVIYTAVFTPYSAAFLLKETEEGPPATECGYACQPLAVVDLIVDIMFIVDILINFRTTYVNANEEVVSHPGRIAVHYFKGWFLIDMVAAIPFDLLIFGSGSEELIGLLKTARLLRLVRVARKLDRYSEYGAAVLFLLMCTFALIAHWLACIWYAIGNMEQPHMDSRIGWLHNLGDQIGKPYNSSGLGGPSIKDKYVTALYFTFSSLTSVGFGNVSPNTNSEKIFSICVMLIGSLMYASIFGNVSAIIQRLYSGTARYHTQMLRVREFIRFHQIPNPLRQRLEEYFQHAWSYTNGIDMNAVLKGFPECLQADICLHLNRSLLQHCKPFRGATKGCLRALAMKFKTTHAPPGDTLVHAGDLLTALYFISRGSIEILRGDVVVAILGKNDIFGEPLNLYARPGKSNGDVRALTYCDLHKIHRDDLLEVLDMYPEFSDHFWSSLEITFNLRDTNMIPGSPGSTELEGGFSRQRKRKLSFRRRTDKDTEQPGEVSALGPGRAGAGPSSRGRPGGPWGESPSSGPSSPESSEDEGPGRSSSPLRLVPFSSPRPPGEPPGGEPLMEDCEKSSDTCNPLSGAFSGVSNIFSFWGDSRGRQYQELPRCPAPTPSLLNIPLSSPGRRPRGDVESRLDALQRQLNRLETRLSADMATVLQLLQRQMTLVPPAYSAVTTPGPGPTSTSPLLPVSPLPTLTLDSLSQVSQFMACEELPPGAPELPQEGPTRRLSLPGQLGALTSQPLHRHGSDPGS
Human PDE10A1, sequence (Q9Y233 1-779 isoform Q9Y233-1): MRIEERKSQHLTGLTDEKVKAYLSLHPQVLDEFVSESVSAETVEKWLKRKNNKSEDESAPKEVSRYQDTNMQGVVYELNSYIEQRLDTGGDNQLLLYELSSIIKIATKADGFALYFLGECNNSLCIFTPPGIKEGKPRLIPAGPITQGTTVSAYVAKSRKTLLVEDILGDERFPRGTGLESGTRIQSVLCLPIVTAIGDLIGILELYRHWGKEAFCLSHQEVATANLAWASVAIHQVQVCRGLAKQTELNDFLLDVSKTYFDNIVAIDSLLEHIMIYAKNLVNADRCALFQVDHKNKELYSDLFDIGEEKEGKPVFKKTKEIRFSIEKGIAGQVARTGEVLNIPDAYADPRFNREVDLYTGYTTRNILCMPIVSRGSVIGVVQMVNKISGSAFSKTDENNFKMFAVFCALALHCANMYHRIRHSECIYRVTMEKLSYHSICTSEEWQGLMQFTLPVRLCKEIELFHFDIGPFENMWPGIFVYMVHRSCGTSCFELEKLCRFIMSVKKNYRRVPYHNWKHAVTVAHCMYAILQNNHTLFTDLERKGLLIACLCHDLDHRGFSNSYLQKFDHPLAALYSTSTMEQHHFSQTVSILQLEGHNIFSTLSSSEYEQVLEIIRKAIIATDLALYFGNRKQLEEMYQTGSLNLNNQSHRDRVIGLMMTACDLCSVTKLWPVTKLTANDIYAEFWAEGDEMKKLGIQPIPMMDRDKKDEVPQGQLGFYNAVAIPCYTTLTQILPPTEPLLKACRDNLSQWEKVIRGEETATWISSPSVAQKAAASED

CCOc1cc(C)nc(N(CCOC)S(=O)(=O)c2ccc(NCc3c(F)cncc3F)nc2OC)n1 [Compound 1]
IC50 (Human PDE10A1): > 40 µM
Ki (hERG): > 80 µM
IC50 (Human PDE1B1): > 40 µM
